Measured values reported in ChEMBL document CHEMBL1150043, “Pachyclavulariolides M-R, six novel diterpenoids from a Taiwanese soft coral Pachyclavularia violacea” (2003).
In brackets after ≈: the same amount, converted by molar mass.

Test system: P388
Assay: Cytotoxicity against mouse P388 cells by MTT method
Format: functional
Conditions: read-out: ED50 (the source's name)

Compound: CC(=O)O[C@@H]1[C@@H](OC(C)=O)C2=C(C)C(=O)O[C@]2(O)C[C@@]2(C)O[C@@H]2CC[C@H](C)[C@H]2CC[C@]1(C)O2 [PACHYCLAVULARIOLIDE M]
- EC50: 3.2 µg/mL (≈ 6.86 µM)
